Organism: Rattus norvegicus
Experiment: DrugMatrix - Regimen: Daily Repeat
Format: toxicity, organism-based, Sprague-Dawley
Parameters: regimen Daily Repeat, gender Male, age 6-8 weeks
Conditions: in vivo, po, route oral GAVAGE, […]; for ABSOLUTE BASOPHIL / ABSOLUTE EOSINOPHIL / ABSOLUTE LYMPHOCYTE / ABSOLUTE MONOCYTE / ABSOLUTE SEGMENTED NEUTROPHIL / BASOPHIL / EOSINOPHIL / ERYTHROCYTE COUNT / HEMATOCRIT / HEMOGLOBIN / LEUKOCYTE COUNT / LYMPHOCYTE / MEAN CORPUSCULAR HEMOGLOBIN / MEAN CORPUSCULAR HEMOGLOBIN CONCENTRATION / MONOCYTE / NEUTROPHIL / NUCLEATED RED BLOOD CELLS / PLATELET COUNT: tissue Blood; for ALANINE AMINOTRANSFERASE / ALBUMIN / ALKALINE PHOSPHATASE / ASPARTATE AMINOTRANSFERASE / BLOOD UREA NITROGEN / CARBON DIOXIDE / CHLORIDE / CHOLESTEROL / CREATINE PHOSPHOKINASE / CREATININE / GLUCOSE / LACTATE DEHYDROGENASE / LIPASE / PHOSPHORUS / POTASSIUM / SODIUM / TOTAL BILIRUBIN / TOTAL PROTEIN / URIC ACID: tissue Plasma
[1] = 0 mg/kg, 72 h, dose level Control, time 3 day
[2] = 0 mg/kg, 120 h, dose level Control, time 5 day
[3] = 250 mg/kg, 72 h, dose level Low, time 3 day

Structure (SMILES): Cc1noc(NS(=O)(=O)c2ccc(N)cc2)c1C [SULFISOXAZOLE]
- ABSOLUTE BASOPHIL [1]: 0 CELLS/uL
- ABSOLUTE EOSINOPHIL [1]: 0 CELLS/uL
- ABSOLUTE LYMPHOCYTE [1]: 11091.17 CELLS/uL
- ABSOLUTE MONOCYTE [1]: 172.17 CELLS/uL
- ABSOLUTE SEGMENTED NEUTROPHIL [1]: 1186.67 CELLS/uL
- BASOPHIL [1]: 0%
- EOSINOPHIL [1]: 0%
- ERYTHROCYTE COUNT [1]: 5.87 x10E6/uL
- HEMATOCRIT [1]: 36.87%
- HEMOGLOBIN [1]: 14.03 G/DL
- LEUKOCYTE COUNT [1]: 12.45 x10E3/uL
- LYMPHOCYTE [1]: 88.67%
- MEAN CORPUSCULAR HEMOGLOBIN [1]: 23.93 pg
- MEAN CORPUSCULAR HEMOGLOBIN CONCENTRATION [1]: 38.1 G/DL
- MONOCYTE [1]: 1.5%
- NEUTROPHIL [1]: 9.83%
- NUCLEATED RED BLOOD CELLS [1]: 0 /100WBC
- PLATELET COUNT [1]: 1150.33 x10E3/uL
- ALANINE AMINOTRANSFERASE [1]: 67.17 u/L
- ALBUMIN [1]: 4.03 G/DL
- ALKALINE PHOSPHATASE [1]: 462.5 u/L
- ASPARTATE AMINOTRANSFERASE [1]: 88 u/L
- BLOOD UREA NITROGEN [1]: 13.17 mg/dL
- CARBON DIOXIDE [1]: 29.33 mmol/L
- CHLORIDE [1]: 101 MEQ/L
- CHOLESTEROL [1]: 69.17 mg/dL
- CREATINE PHOSPHOKINASE [1]: 292.5 u/L
- CREATININE [1]: 0.17 mg/dL
- GLUCOSE [1]: 167.5 mg/dL
- LACTATE DEHYDROGENASE [1]: 198.5 u/L
- LIPASE [1]: 10.67 u/L
- PHOSPHORUS [1]: 11.73 mg/dL
- POTASSIUM [1]: 5.91 MEQ/L
- SODIUM [1]: 143.3 MEQ/L
- TOTAL BILIRUBIN [1]: 0.18 mg/dL
- TOTAL PROTEIN [1]: 5.7 G/DL
- URIC ACID [1]: 1.3 mg/dL
- ABSOLUTE BASOPHIL [2]: 0 CELLS/uL
- ABSOLUTE EOSINOPHIL [2]: 64.33 CELLS/uL
- ABSOLUTE LYMPHOCYTE [2]: 12494.67 CELLS/uL
- ABSOLUTE MONOCYTE [2]: 117 CELLS/uL
- ABSOLUTE SEGMENTED NEUTROPHIL [2]: 1340.67 CELLS/uL
- BASOPHIL [2]: 0%
- EOSINOPHIL [2]: 0.33%
- ERYTHROCYTE COUNT [2]: 5.82 x10E6/uL
- HEMATOCRIT [2]: 36.97%
- HEMOGLOBIN [2]: 14.18 G/DL
- LEUKOCYTE COUNT [2]: 14.02 x10E3/uL
- LYMPHOCYTE [2]: 89%
- MEAN CORPUSCULAR HEMOGLOBIN [2]: 24.42 pg
- MEAN CORPUSCULAR HEMOGLOBIN CONCENTRATION [2]: 38.4 G/DL
- MONOCYTE [2]: 0.83%
- NEUTROPHIL [2]: 9.83%
- NUCLEATED RED BLOOD CELLS [2]: 0 /100WBC
- PLATELET COUNT [2]: 1097.83 x10E3/uL
- ALANINE AMINOTRANSFERASE [2]: 58.83 u/L
- ALBUMIN [2]: 3.92 G/DL
- ALKALINE PHOSPHATASE [2]: 414.17 u/L
- ASPARTATE AMINOTRANSFERASE [2]: 89.17 u/L
- BLOOD UREA NITROGEN [2]: 16.83 mg/dL
- CARBON DIOXIDE [2]: 29.17 mmol/L
- CHLORIDE [2]: 100.33 MEQ/L
- CHOLESTEROL [2]: 54.5 mg/dL
- CREATINE PHOSPHOKINASE [2]: 386.17 u/L
- CREATININE [2]: 0.23 mg/dL
- GLUCOSE [2]: 184.17 mg/dL
- LACTATE DEHYDROGENASE [2]: 229.17 u/L
- LIPASE [2]: 10.83 u/L
- PHOSPHORUS [2]: 10.88 mg/dL
- POTASSIUM [2]: 5.97 MEQ/L
- SODIUM [2]: 142.2 MEQ/L
- TOTAL BILIRUBIN [2]: 0.12 mg/dL
- TOTAL PROTEIN [2]: 5.63 G/DL
- URIC ACID [2]: 1.55 mg/dL
- ABSOLUTE BASOPHIL [3]: 0 CELLS/uL
- ABSOLUTE EOSINOPHIL [3]: 53.33 CELLS/uL
- ABSOLUTE LYMPHOCYTE [3]: 12619.33 CELLS/uL
- ABSOLUTE MONOCYTE [3]: 200.67 CELLS/uL
- ABSOLUTE SEGMENTED NEUTROPHIL [3]: 1193.33 CELLS/uL
- BASOPHIL [3]: 0%
- EOSINOPHIL [3]: 0.33%
- ERYTHROCYTE COUNT [3]: 5.71 x10E6/uL
- HEMATOCRIT [3]: 36.37%
- HEMOGLOBIN [3]: 14.1 G/DL
- LEUKOCYTE COUNT [3]: 14.07 x10E3/uL
- LYMPHOCYTE [3]: 89.67%
- MEAN CORPUSCULAR HEMOGLOBIN [3]: 24.7 pg
- MEAN CORPUSCULAR HEMOGLOBIN CONCENTRATION [3]: 38.77 G/DL
- MONOCYTE [3]: 1.33%
- NEUTROPHIL [3]: 8.67%
- NUCLEATED RED BLOOD CELLS [3]: 0 /100WBC
- PLATELET COUNT [3]: 1238.67 x10E3/uL
- ALANINE AMINOTRANSFERASE [3]: 58.33 u/L
- ALBUMIN [3]: 4.03 G/DL
- ALKALINE PHOSPHATASE [3]: 426.33 u/L
- ASPARTATE AMINOTRANSFERASE [3]: 80.67 u/L
- BLOOD UREA NITROGEN [3]: 15 mg/dL
- CARBON DIOXIDE [3]: 27.33 mmol/L
- CHLORIDE [3]: 102.67 MEQ/L
- CHOLESTEROL [3]: 67.67 mg/dL
- CREATINE PHOSPHOKINASE [3]: 283.67 u/L
- CREATININE [3]: 0.16 mg/dL
- GLUCOSE [3]: 171.67 mg/dL
- LACTATE DEHYDROGENASE [3]: 137.33 u/L
- LIPASE [3]: 9.67 u/L
- PHOSPHORUS [3]: 11.9 mg/dL
- POTASSIUM [3]: 6.14 MEQ/L
- SODIUM [3]: 145.13 MEQ/L
- TOTAL BILIRUBIN [3]: 0.13 mg/dL
- TOTAL PROTEIN [3]: 5.6 G/DL
